Test results: patent US10287616B2, “Label free biosensors, gram-negative bacteria detection, and real-time and end point determination of antibiotic effects” (priority 2015, dated 2019)
Where two headings read alike, the source gives them in different places.

Tests used:
[1] = test system: E. coli W1485; conditions: for ΔF (Hz): 10 mg/L antibiotic, FIG. 27; for ΔR (Ω) / ΔR/R0 (%): 10 mg/L
Description: Experiments were also performed to study the concentration of the antibiotics and the length of the incubation time of antibiotics for their ability to kill or inhibit the growth of the bacteria. Different concentrations of each antibiotic were added to 5×10^8 cells/mL E. coli respectively, and then incubated at 37° C. and 280 rpm on the shaker. After 3 hours of incubation, 1 μL of antibiotic treated E. coli culture was added to the Con A sensor cell containing 1 mL of 10 mM HEPES buffer (pH 7.4) for QCM measurements, respectively. […] 1 μL of each antibiotic treated E. coli was taken at different incubation times (i.e., 0, 1, 2, 3 hours) and was added into the Con A senor cell containing 1 mL of 10 mM HEPES buffer (pH 7.4) for QCM measurements.
In most studies dealing with antibiotic-induced LPS release, bioreactive endotoxin has been measured by means of the Limulus amoebocyte lysate (LAL) assay, which involves an enzymatic reaction triggered by the core region of LPS. […] However, some antibiotics (i.e., aminoglycoside) are known to suppress the LAL reaction, which limits the application of LAL. Reproducible ELISA also can be used to detect LPS. […] A QCM is known to provide a very sensitive mass measuring device and dispense with the time- and cost-demanding labeling step and also eliminates any possible interference of the “true” binding process due to the presence of the labels.

[2] = test system: E. coli; conditions: cited from earlier work; for Previously Reported Minimum Inhibitory Concentration (MIC, mg/L): different strains
[3] = test system: E. coli W1485; assay: Real time experiment, SWV signal after 3 hours of incubation with antibiotic; format: cell-based, Escherichia coli; conditions: 30 mg/L antibiotic; for SWV sensor signal: without antibiotic 0.37 μA
Description: Electrochemical measurements were performed on a GAMRY 4-channel electrochemical workstation. A three-electrode electrochemical cell composed of a Con A sensor as working electrode, platinum wire as counter electrode and Ag/AgCl (saturated KCl) electrode as reference electrode, was used. Square wave voltammetric measurements were performed under ambient conditions (21-23° C.). Each measurement had been repeated at least three times with independently prepared Con A sensors.
For the real time measurements, Con A sensor was mounted in a biosensor cell containing 1 mL of 10 mM HEPES buffer (pH 7.4). Real time QCM measurements were obtained for each experimental step. First, 1 μL of 5×10^8 cells/mL E. coli obtained from the stationary phase was added into the biosensor cell. When frequency reached a constant value, it was washed with 1 mL of 10 mM HEPES buffer to remove the unbound E. coli. […] The frequency changes vs time and the damping resistance vs time were recorded by QCM.
Different types of antibiotics have differing abilities to alter the LPS properties and subsequent reduction in their binding. This can be used as an indicator for the antibiotic effects for killing the bacteria or inhibiting their growth. The biosensor ability to quantitatively measure these parameters real time was tested. For that purpose, the Con A sensor was exposed to 1 μL of 5×10^8 cells/mL E. coli to capture the bacteria via Con A-LPS binding. The unbound E. coli was removed by washing with 1 mL of 10 mM HEPES buffer. […] In the three separate measurements shown in FIG. 25A, it can be clearly seen that the initial parts of the curves which are related to E. coli immobilization are almost coinciding to each other. This real time QCM measurement also allows us to observe the reproducibility of the sensor performance. In the last parts of the curves, when different antibiotics are added, their variable effects in killing the bacteria and reducing their binding caused a variable shift of the frequency. This shift was opposite in direction to what was obtained by bacterial addition which is indicative of reduced binding. These responses (shown in the inset) provided the quantitative details of this effect. […] Due to real time nature of this experiment, the frequency and damping resistance change were much smaller than that of FIGS. 24A and 24B. This confirms that the antibiotic drug effect on LPS is a slow process but the high sensitivity sensor disclosed herein allows such subtle changes to be measured. Moreover, the results of the QCM and Electrochemical measurements are validating each other again. […]

| SMILES | ΔF (Hz) ([1]; incubation time 0 h) | ΔF (Hz) ([1]; incubation time 1 h) | ΔF (Hz) ([1]; incubation time 2 h) | ΔF (Hz) ([1]; incubation time 3 h) | ΔR (Ω) ([1]; 0 h) | ΔR/R0 (%) ([1]; 0 h) | ΔR (Ω) ([1]; 1 h) | ΔR/R0 (%) ([1]; 1 h) | ΔR (Ω) ([1]; 2 h) | ΔR/R0 (%) ([1]; 2 h) | ΔR (Ω) ([1]; 3 h) | ΔR/R0 (%) ([1]; 3 h) | MIC ([2]; E. coli (47)) | MIC ([2]; E. coli (305)) | Previously Reported Minimum Inhibitory Concentration (MIC, mg/L) [2] | SWV sensor signal, fold of signal without antibiotic [3] | SWV sensor signal [3] |
| --- | --- | --- | --- | --- | --- | --- | --- | --- | --- | --- | --- | --- | --- | --- | --- | --- | --- |
| CO/N=C(\C(=O)N[C@@H]1C(=O)N2C(C(=O)O)=C(CSc3nc(=O)c(=O)[nH]n3C)CS[C@H]12)c1csc(N)n1 [ceftriaxone] | 356 Hz | 256 Hz | 223 Hz | 187 Hz | 15 Ω | 4.9% | 15.5 Ω | 5.0% | 16.1 Ω | 5.2% | 16.6 Ω | 5.4% | 0.0125 to 25 µg/mL | 0.06 to 8 µg/mL | 0.024 to 0.195 mg/L | 2.50 fold | 0.92 μA |
| O=C(O)c1cn(C2CC2)c2cc(N3CCNCC3)c(F)cc2c1=O [ciprofloxacin] |  |  |  |  | 15 Ω | 4.9% | 17 Ω | 5.6% | 18.6 Ω | 6.1% | 14 Ω | 4.6% |  |  | 0.0075 to 0.015 mg/L |  | 0.89 μA |
| CN(C)[C@@H]1C(O)=C(C(N)=O)C(=O)[C@@]2(O)C(O)=C3C(=O)c4c(O)cccc4[C@@](C)(O)[C@H]3C[C@@H]12 [tetracycline] | 378 Hz | 329 Hz | 279 Hz | 244 Hz | 16 Ω | 5.3% | 17 Ω | 5.6% | 16 Ω | 5.2% | 15.6 Ω | 5.1% |  |  |  |  | 0.65 μA |
